# Measured values reported in PMC10501326, “A Phase I Study of the Pan-Notch Inhibitor CB-103 for Patients with Advanced Adenoid Cystic Carcinoma and Other Tumors” (Cancer Research Communications, 2023).
# Several values for one entry are separate records, joined by “and”; a condition that tells them apart may be missing. Equal entries are not always repeated. Entries after “also recorded” stand apart in the source; their conditions may differ. Where two headings read alike, the source gives them in different places.
# Tests used:
# [1] = Plasma pharmacokinetics (LC/MS-MS); format: in vivo, human; conditions: for half-life: SD, read-out: Plasma elimination half-life (t1/2) (converted)
# Protocol: Plasma pharmacokinetics were assessed for CB-103 via blood samples taken on days 1 (predose, 0.5, 1, 2, 4, 6, 8 hours postdose ± 5 minutes, and 12 hours postdose ± 15 minutes), 2 (24-hour post-day 1, predose), 3 (predose), 8 (predose, 0.5, 1, 2, 4, 6, and 8 hour postdose ± 5 minutes), 9 (24-hour post-day 8, predose), 15, and 22 (predose, and 1 hour postdose) in cycle 1. In cycle 2, on day 1 (predose, 0.5, 1, 2, 6, and, 8 hours postdose ± 5 minutes) and 15 (predose); in cycles 3–6 once at each visit (predose or postdose). For a twice daily dose schedule, pharmacokinetic timepoints were adjusted to evaluate concentration-versus-time curves after morning and evening doses on days 1 and 8.
# CB-103 concentrations were determined by validated high-performance LC/MS-MS method and analyzed descriptively using Phoenix WinNonlin v6.3 (Pharsight Corporation). Data at timepoints collected were used to generate a population pharmacokinetic model to estimate AUC and Cmax to associate with safety and efficacy.
# [2] = tested on: Notch target genes (HEY1, IL7R alpha, NOTCH1, 2 and 4); test: Peripheral Notch target gene expression versus exposure (gene panel, in words); format: in vivo, human; conditions: patients with ACC on twice daily dosing (n = 13); up to 1,000 mg (500 mg twice daily)
# From the text: Archival tumor tissue (not older than 6 months prior to screening) or fresh tumor biopsy was required to characterize Notch alteration status by targeted genomic sequencing and/or NICD1 expression (via IHC) among the confirmatory cohort at baseline. Repeat biopsy on cycle 2 day 15 and at disease progression was optional. Serial whole blood samples (and/or bone marrow samples and saliva among patients with T-ALL/T-LBL) were obtained on day 1 of cycles 1–6 to evaluate the dynamics of Notch gene expression. Peripheral blood was collected with PaxGene tubes and frozen at −20°C until processing. RNA was extracted (Qiagen RNeasy Micro kit) from peripheral whole blood and analyzed by Nanostring with percent change in expression levels reported with respect to baseline normalized values.
# Percent change (%) in peripheral blood cell Notch target gene expression was monitored among a subset of patients with ACC receiving twice daily dosing (n = 13).
smiles,measurement,setting,value
CC(C)(C)c1ccc(Oc2ccc(N)cn2)cc1 [CB-103],AUC,"[1]; human, plasma, oral, 13 mg, Cohort 1 (13 mg), Cycle 1, Day 1, read-out: Mean AUC24",174 ng·h/mL
same,Cmax,"[1]; human, plasma, oral, 13 mg, Cohort 1 (13 mg), Cycle 1, Day 1, read-out: Mean Cmax",44.4 ng/mL
same,AUC,"[1]; human, plasma, oral, 13 mg, Cohort 1 (13 mg), Cycle 1, Day 8, read-out: Mean AUC24",433 ng·h/mL
same,Cmax,"[1]; human, plasma, oral, 13 mg, Cohort 1 (13 mg), Cycle 1, Day 8, read-out: Mean Cmax",58.7 ng/mL
same,AUC,"[1]; human, plasma, oral, 26 mg, Cohort 2 (26 mg), Cycle 1, Day 1, read-out: Mean AUC24",220 ng·h/mL
same,Cmax,"[1]; human, plasma, oral, 26 mg, Cohort 2 (26 mg), Cycle 1, Day 1, read-out: Mean Cmax",53.7 ng/mL
same,AUC,"[1]; human, plasma, oral, 52 mg, Cohort 3 (52 mg), Cycle 1, Day 1, read-out: Mean AUC24",496 ng·h/mL
same,Cmax,"[1]; human, plasma, oral, 52 mg, Cohort 3 (52 mg), Cycle 1, Day 1, read-out: Mean Cmax",98.5 ng/mL
same,AUC,"[1]; human, plasma, oral, 52 mg, Cohort 3 (52 mg), Cycle 1, Day 8, read-out: Mean AUC24",999 ng·h/mL
same,Cmax,"[1]; human, plasma, oral, 52 mg, Cohort 3 (52 mg), Cycle 1, Day 8, read-out: Mean Cmax",154 ng/mL
same,AUC,"[1]; human, plasma, oral, 104 mg, Cohort 4 (104 mg), Cycle 1, Day 1, read-out: Mean AUC24",1440 ng·h/mL
same,Cmax,"[1]; human, plasma, oral, 104 mg, Cohort 4 (104 mg), Cycle 1, Day 1, read-out: Mean Cmax",368 ng/mL
same,AUC,"[1]; human, plasma, oral, 104 mg, Cohort 4 (104 mg), Cycle 1, Day 8, read-out: Mean AUC24",3690 ng·h/mL
same,Cmax,"[1]; human, plasma, oral, 104 mg, Cohort 4 (104 mg), Cycle 1, Day 8, read-out: Mean Cmax",418 ng/mL
same,AUC,"[1]; human, plasma, oral, 148 mg, Cohort 5 (148 mg), Cycle 1, Day 1, read-out: Mean AUC24",1260 ng·h/mL
same,Cmax,"[1]; human, plasma, oral, 148 mg, Cohort 5 (148 mg), Cycle 1, Day 1, read-out: Mean Cmax",482 ng/mL
same,AUC,"[1]; human, plasma, oral, 148 mg, Cohort 5 (148 mg), Cycle 1, Day 8, read-out: Mean AUC24",2830 ng·h/mL
same,Cmax,"[1]; human, plasma, oral, 148 mg, Cohort 5 (148 mg), Cycle 1, Day 8, read-out: Mean Cmax",427 ng/mL
same,AUC,"[1]; human, plasma, oral, 217 mg, Cohort 6 (217 mg), Cycle 1, Day 1, read-out: Mean AUC24",2620 ng·h/mL
same,Cmax,"[1]; human, plasma, oral, 217 mg, Cohort 6 (217 mg), Cycle 1, Day 1, read-out: Mean Cmax",731 ng/mL
same,AUC,"[1]; human, plasma, oral, 217 mg, Cohort 6 (217 mg), Cycle 1, Day 8, read-out: Mean AUC24",4250 ng·h/mL
same,Cmax,"[1]; human, plasma, oral, 217 mg, Cohort 6 (217 mg), Cycle 1, Day 8, read-out: Mean Cmax",912 ng/mL
same,AUC,"[1]; human, plasma, oral, 250 mg, Cohort 9 (250 mg BID), Cycle 1, Day 1, read-out: Mean AUC24",6140 ng·h/mL
same,Cmax,"[1]; human, plasma, oral, 250 mg, Cohort 9 (250 mg BID), Cycle 1, Day 1, read-out: Mean Cmax",1010 ng/mL
same,AUC,"[1]; human, plasma, oral, 250 mg, Cohort 9 (250 mg BID), Cycle 1, Day 8, read-out: Mean AUC24",11700 ng·h/mL
same,Cmax,"[1]; human, plasma, oral, 250 mg, Cohort 9 (250 mg BID), Cycle 1, Day 8, read-out: Mean Cmax",1310 ng/mL
same,AUC,"[1]; human, plasma, oral, 300 mg, Cohort 10 (300 mg BID 5/2), Cycle 1, Day 1, read-out: Mean AUC24",10400 ng·h/mL
same,Cmax,"[1]; human, plasma, oral, 300 mg, Cohort 10 (300 mg BID 5/2), Cycle 1, Day 1, read-out: Mean Cmax",1630 ng/mL
same,AUC,"[1]; human, plasma, oral, 300 mg, Cohort 10 (300 mg BID 5/2), Cycle 1, Day 8, read-out: Mean AUC24",11300 ng·h/mL
same,Cmax,"[1]; human, plasma, oral, 300 mg, Cohort 10 (300 mg BID 5/2), Cycle 1, Day 8, read-out: Mean Cmax",1390 ng/mL
same,AUC,"[1]; human, plasma, oral, 348 mg, Cohort 7 (348 mg), Cycle 1, Day 1, read-out: Mean AUC24",3520 ng·h/mL
same,Cmax,"[1]; human, plasma, oral, 348 mg, Cohort 7 (348 mg), Cycle 1, Day 1, read-out: Mean Cmax",1150 ng/mL
same,AUC,"[1]; human, plasma, oral, 348 mg, Cohort 7 (348 mg), Cycle 1, Day 8, read-out: Mean AUC24",6880 ng·h/mL
same,Cmax,"[1]; human, plasma, oral, 348 mg, Cohort 7 (348 mg), Cycle 1, Day 8, read-out: Mean Cmax",874 ng/mL
same,AUC,"[1]; human, plasma, oral, 400 mg, Cohort 11 (400 mg BID 5/2), Cycle 1, Day 1, read-out: Mean AUC24",14900 ng·h/mL
same,Cmax,"[1]; human, plasma, oral, 400 mg, Cohort 11 (400 mg BID 5/2), Cycle 1, Day 1, read-out: Mean Cmax",1620 ng/mL
same,AUC,"[1]; human, plasma, oral, 400 mg, Cohort 11 (400 mg BID 5/2), Cycle 1, Day 8, read-out: Mean AUC24",14100 ng·h/mL
same,Cmax,"[1]; human, plasma, oral, 400 mg, Cohort 11 (400 mg BID 5/2), Cycle 1, Day 8, read-out: Mean Cmax",2400 ng/mL
same,AUC,"[1]; human, plasma, oral, 500 mg, Cohort 12 (500 mg BID 5/2), Cycle 1, Day 1, read-out: Mean AUC24",14200 ng·h/mL
same,Cmax,"[1]; human, plasma, oral, 500 mg, Cohort 12 (500 mg BID 5/2), Cycle 1, Day 1, read-out: Mean Cmax",2390 ng/mL
same,AUC,"[1]; human, plasma, oral, 500 mg, Cohort 12 (500 mg BID 5/2), Cycle 1, Day 8, read-out: Mean AUC24",18600 ng·h/mL
same,Cmax,"[1]; human, plasma, oral, 500 mg, Cohort 12 (500 mg BID 5/2), Cycle 1, Day 8, read-out: Mean Cmax",2760 ng/mL
same,Cmax,"[1]; human, plasma, oral, 500 mg, individual patients, total dose 500 mg, twice daily dosing, read-out: Cmax",1230 ng/mL
same,AUC,"[1]; human, plasma, oral, 522 mg, Cohort 8 (522 mg), Cycle 1, Day 1, read-out: Mean AUC24",5910 ng·h/mL
same,Cmax,"[1]; human, plasma, oral, 522 mg, Cohort 8 (522 mg), Cycle 1, Day 1, read-out: Mean Cmax",1230 ng/mL
same,AUC,"[1]; human, plasma, oral, 522 mg, Cohort 8 (522 mg), Cycle 1, Day 8, read-out: Mean AUC24",13500 ng·h/mL
same,Cmax,"[1]; human, plasma, oral, 522 mg, Cohort 8 (522 mg), Cycle 1, Day 8, read-out: Mean Cmax",1740 ng/mL
same,Cmax,"[1]; human, plasma, oral, 800 mg, individual patient, total dose 800 mg, twice daily dosing, read-out: Cmax",1730 ng/mL
same,half-life,"[1]; human, plasma, oral, cycle 1 day 1, 8.5",16.5 h
same,Cmax,"[1]; human, plasma, oral, cycle 1 day 1, entire sampled cohort, read-out: Mean Cmax",731 ng/mL
same,half-life,"[1]; human, plasma, oral, cycle 1 day 8, 42.6",37.7 h
same,AUC,"[1]; human, plasma, oral, entire sampled cohort, read-out: Mean AUC from 0 to 24",3160 ng·h/mL
same,Tmax,"[1]; human, plasma, oral, day 1 of cycle 1, dose-escalation cohorts 1 through 8, read-out: Peak (tmax)",0.5 to 2 h
same,Cmax,"[1]; individual patients, total dose 500 mg, twice daily dosing, read-out: Cmax",1800 ng/mL
same,Cmax,"[1]; individual patients, total dose 600 mg, twice daily dosing",638 ng·h/mL and 2100 ng·h/mL and 1280 ng·h/mL and 1220 ng·h/mL and 1710 ng·h/mL
same,Cmax,"[1]; individual patients, total dose 1000 mg, twice daily dosing",4420 ng·h/mL and 2580 ng·h/mL and 3760 ng·h/mL and 2410 ng·h/mL and 1240 ng·h/mL
same,Peripherally measured Notch target gene expression levels versus exposure/dose,[2],downregulation; also recorded: declined with increasing exposure
